Assay results from patent US4395405A, “Alkyl-ketohexopyranoside derivatives and method of use” (Hisamitsu Pharmaceutical Co., Inc., priority 1979, dated 1983).

What was measured:
IgE antibodies [1] = assay: Formation of homocytotropic antibodies in rats, PCA (passive cutaneous anaphylaxis) reaction; assay type: in vivo, rats of wistar strain
Procedure: (§1) Effects on the formation of homocytotropic antibodies in rats
(§2) An experiment was carried out in accordance with the Tada and Okumura's method (J. Immunol., Vol. 106, p 1002, 1971).
(§3) Groups each consisting of 8-9 rats of wistar strain were used in this experiment.
(§4) As shown in Tables 2-5, to the four legs of the rats were injected 1 mg of dinitrophenylated extract of ascaris suum (DNP-As) as protein and 10^10 cells of vaccinum pertussis (B. Pertussis) for sensitization, after which the compounds of this invention were administered to the injected rats for 5 days. Eight to nine days after the sensitization, bloodletting was effected on these rats to collect their serum for estimating the amount of antibodies formed using passive cutaneous anaphylaxis (PCA) reactions and phytohemaglutinin (PHA) reactions.
(1) Estimation of the amount of antibodies by PCA reaction:
The collected serum was diluted in various concentrations and intradermally injected to other rats. Forty-eight (48) hours after the injection, 2 mg of DNP-As as protein and 0.5 ml of a 1% Evans Blue were intravenously injected into these rats to determine the dilution of the serum which induced the minimum extravasted dye. It should be noted that the symbols "*" and "**" in the following Tables indicate significant differences at risks of 5% and 1%, respectively. […]

IgG and IgM [2] = assay: Amount of antibodies formed in rats, PHA (phytohemaglutinin) reaction; assay type: in vivo, rats of wistar strain
Procedure: as §1, §2, §3, §4
(2) Estimation of the amount of antibodies by PHA reaction:
The collected serum was diluted in various concentrations and incubated with sheep red blood cells coupled with DNP-As using bis-diazoated benzydine to determine the dilution of the serum which induced the minimum hemaglutination. […]

IgE antibodies [3] = assay: Formation of homocytotropic antibodies in mice, PCA reaction; assay type: in vivo, mice (BALB/c strain), female; conditions: 100 mg/Kg/day for 5 days
Procedure: The collected serum was diluted in various concentrations and intradermally injected to other rats. Forty-eight (48) hours after the injection, 2 mg of DNP-As as protein and 0.5 ml of a 1% Evans Blue were intravenously injected into these rats to determine the dilution of the serum which induced the minimum extravasted dye. It should be noted that the symbols "*" and "**" in the following Tables indicate significant differences at risks of 5% and 1%, respectively.
(§5) Effects on the formation of homocytotropic antibodies in mice
(§6) Groups each consisting of 5 female mice (BALB/c strain) were used in this experiment. The mice were sensitized with 10 μg of DNP-As as protein and 3 mg of Al(OH)3, after which the test compound was administered to the sensitized mice for 5 days (at a dose of 100 mg/Kg/day). After the sensitization, a sample of serum was collected from the mice and treated in the same manner as in Experiment 1 to determine the amount of antibodies formed. […]

[4] = Acute poisoning test on rats; conditions: rat, in vivo, three weeks
Procedure: (§7) Each of the test compounds was suspended in a physiological solution of sodium chloride containing 0.5% of tragacanth gum to obtain a test suspension. The test suspensions so obtained were administered to rats and mice in various ways. LD50 was calculated from test animals which died in three weeks after the start of the test.

IgG and IgM [5] = assay: Amount of antibodies formed in mice, PHA reaction; assay type: in vivo, mice (BALB/c strain), female; conditions: 100 mg/Kg/day for 5 days
Procedure: The collected serum was diluted in various concentrations and incubated with sheep red blood cells coupled with DNP-As using bis-diazoated benzydine to determine the dilution of the serum which induced the minimum hemaglutination.
as §5, §6

[6] = Acute poisoning test on mice; conditions: mouse, in vivo, three weeks
Procedure: as §7

[7] = Table 2, abdominal and oral administration, 5 days, serum 8 days after sensitization, control 237 (169-337)
[8] = Table 2, abdominal and oral administration, 5 days, serum 9 days after sensitization, control 169 (119-223)
[9] = Table 4, oral administration, serum 8 days after the sensitization, control 320 (270-370)
[10] = Table 6, oral, serum 10 days after sensitization, control 256 ± 128
[11] = Table 6, oral, serum 21 days after sensitization, control 1024 ± 0
[12] = Table 6, oral, serum 30 days after sensitization, control 299 ± 43
[13] = Table 11, hypodermic, serum 9 days after, control 380.2 (269.2-537.0), 100 mg/kg/day
[14] = Table 3 left half, hypodermic administration, serum 8 days after sensitization, control 144.5 (117.5-177.8)
[15] = Table 9, hypodermic, serum 37 days after, control 3467.37 (2013.72-3767.04)
[16] = Table 5 left half, hypodermic administration, serum 8 days after sensitization, control 1318.3 (933.3-1862.1)
[17] = Table 11, hypodermic, serum 9 days after, control 380.2 (269.2-537.0)
[18] = Table 11, hypodermic, serum 10 days after, control 109.7 (95.5-125.9)
[19] = Table 11, hypodermic, serum 37 days after, control 1071.5 (871.0-1318.3)
[20] = Table 7, oral, serum 10 days after sensitization, control 537.0 (436.5-660.7)
[21] = Table 8, hypodermic, serum 9 days after, control 708.0 (575.4-871.0)
[22] = Table 8, hypodermic, serum 10 days after, control 537.0 (380.2-758.6)
[23] = Table 8, hypodermic, serum 37 days after, control 2818.4 (1862.1-4265.8)
[24] = Table 10, oral, serum 10 days after, control 125.9 (95.5-166.0)
[25] = Table 3 right half, hypodermic administration, serum 8 days after sensitization, control 269.2 (218.8-331.1)
[26] = Table 5 right half, hypodermic administration, serum 8 days after sensitization, control 3235.9 (2454.7-4265.8)

| SMILES | PCA of rat: dilution of the serum which induced the minimum extravasted dye (IgE antibodies [1]; [7]) | PCA of rat: dilution of the serum which induced the minimum extravasted dye (IgE antibodies [1]; [8]) | PHA of rat: dilution of the serum which induced the minimum hemaglutination (IgG and IgM [2]; [9]) | PCA of mice (serum dilution) (IgE antibodies [3]; [10]) | PCA of mice (serum dilution) (IgE antibodies [3]; [11]) | PCA of mice (serum dilution) (IgE antibodies [3]; [12]) | PHA of mice (serum dilution) (IgG and IgM [5]; [17]) | PHA of mice (serum dilution) (IgG and IgM [5]; [18]) | PHA of mice (serum dilution) (IgG and IgM [5]; [19]) | PCA of mice (serum dilution) (IgE antibodies [3]; [20]) | PHA of mice (serum dilution) (IgG and IgM [5]; [24]) | further results |
| --- | --- | --- | --- | --- | --- | --- | --- | --- | --- | --- | --- | --- |
| CCCCOC1(CO)OCC(O)C(O)C1O [Compound No. 2, n-butyl-β-D-fructopyranoside] | 147 | 84.4 | 600 | – | – | – | – | – | – | – | – | – |
| CC(C)COC1(CO)OCC(O)C(O)C1O [Compound No. 3, isobutyl-β-D-fructopyranoside] | 73.5 | 97.0 | 630 | 118 ± 37 | 563 ± 125 | 256 ± 129 | – | – | – | – | – | – |
| CCCCCOC1(CO)OCC(O)C(O)C1O [Compound No. 4, n-pentyl-β-D-fructopyranoside] | 52.0 | 51.9 | 3250 | 88 ± 24 | 328 ± 108 | 272 ± 80 | – | – | – | – | – | LD50 at 504 h ([4]; ip, abdominally, female): > 2780 mg/kg; LD50 at 504 h ([4]; ip, abdominally, male): > 2780 mg/kg; LD50 at 504 h ([4]; iv, intravenously, female): 660 mg/kg; LD50 at 504 h ([4]; iv, intravenously, male): 670 mg/kg; LD50 at 504 h ([4]; po, orally, female): > 4000 mg/kg; LD50 at 504 h ([4]; po, orally, male): > 4000 mg/kg; LD50 at 504 h ([4]; sc, hypodermically, female): 1300 mg/kg; LD50 at 504 h ([4]; sc, hypodermically, male): 1500 mg/kg; PHA of mice (serum dilution) (IgG and IgM [5]; [13]): 309.0 (251.2-380.2); PCA of rat: dilution of the serum which induced the minimum extravasted dye (IgE antibodies [1]; [14]): 102.4; LD50 at 504 h ([6]; ip, abdominally, female): 2360 mg/kg; LD50 at 504 h ([6]; ip, abdominally, male): 2590 mg/kg; LD50 at 504 h ([6]; iv, intravenously, female): 930 mg/kg; LD50 at 504 h ([6]; iv, intravenously, male): 760 mg/kg; LD50 at 504 h ([6]; po, orally, female): 3790 mg/kg; LD50 at 504 h ([6]; po, orally, male): 3800 mg/kg; LD50 at 504 h ([6]; sc, hypodermically, female): 1080 mg/kg; LD50 at 504 h ([6]; sc, hypodermically, male): 1020 mg/kg; PCA of mice (serum dilution) (IgE antibodies [3]; [15]): 177.83; PHA of rat: dilution of the serum which induced the minimum hemaglutination (IgG and IgM [2]; [16]): 2454.7 |
| CC(C)CCOC1(CO)OCC(O)C(O)C1O [Compound No. 5, isopentyl-β-D-fructopyranoside] | – | 90.5 | – | 316 ± 86 | 480 ± 142 | 448 ± 64 | – | – | – | – | – | – |
| CCCCCCOC1(CO)OCC(O)C(O)C1O [Compound No. 6, n-hexyl-β-D-fructopyranoside] | 97.0 | 147 | 810 | 320 | 288 | 240 | – | – | – | – | – | – |
| CCCOC1(CO)OCC(O)C(O)C1O [Compound No. 7, n-propyl-α-L-sorbopyranoside] | – | – | – | – | – | – | 309.0 (251.2-380.2) | 166.0 (134.9-204.2) | 1000 (758.6-1318.3) | 218.8 | – | LD50 at 504 h ([4]; ip, abdominally, male): > 5000 mg/kg; LD50 at 504 h ([4]; iv, intravenously, male): > 2000 mg/kg; LD50 at 504 h ([4]; po, orally, male): > 5000 mg/kg; LD50 at 504 h ([4]; sc, hypodermically, male): > 5000 mg/kg; PCA of rat: dilution of the serum which induced the minimum extravasted dye (IgE antibodies [1]; [14]): 67.6; LD50 at 504 h ([6]; ip, abdominally, male): > 1000 mg/kg; LD50 at 504 h ([6]; iv, intravenously, male): > 2000 mg/kg; LD50 at 504 h ([6]; po, orally, male): > 5000 mg/kg; LD50 at 504 h ([6]; sc, hypodermically, male): > 5000 mg/kg; PCA of mice (serum dilution) (IgE antibodies [3]; [21]): 660.7; PCA of mice (serum dilution) (IgE antibodies [3]; [22]): 407.4; PCA of mice (serum dilution) (IgE antibodies [3]; [23]): 1995.3; PHA of rat: dilution of the serum which induced the minimum hemaglutination (IgG and IgM [2]; [16]): 5248.1 |
| CCCCOC1(CO)OCC(O)C(O)C1O [Compound No. 9, n-butyl-α-L-sorbopyranoside] | – | – | – | – | – | – | 288.4 (245.5-354.8) | 102.3 (89.1-117.5) | 871.0 (660.7-1148.2) | 380.2 | 177.8 | PCA of rat: dilution of the serum which induced the minimum extravasted dye (IgE antibodies [1]; [14]): 47.9; PCA of mice (serum dilution) (IgE antibodies [3]; [21]): 708.0; PCA of mice (serum dilution) (IgE antibodies [3]; [22]): 218.8; PCA of mice (serum dilution) (IgE antibodies [3]; [23]): 1513.6; PCA of mice (serum dilution) (IgE antibodies [3]; [15]): 251.19; PHA of rat: dilution of the serum which induced the minimum hemaglutination (IgG and IgM [2]; [16]): 5248.1 |
| CCCCCOC1(CO)OCC(O)C(O)C1O [Compound No. 11, n-pentyl-α-L-sorbopyranoside] | – | – | – | – | – | – | – | 109.7 (83.2-144.5) | 1621.8 (1318.3-1995.3) | 501.2 | 177.8 | PHA of mice (serum dilution) (IgG and IgM [5]; [13]): 354.8 (288.4-457.1); PCA of rat: dilution of the serum which induced the minimum extravasted dye (IgE antibodies [1]; [25]): 154.9 (134.9-177.8); PCA of mice (serum dilution) (IgE antibodies [3]; [15]): 177.83; PHA of rat: dilution of the serum which induced the minimum hemaglutination (IgG and IgM [2]; [26]): 3467.4 (2630.3-4570.8) |
| CC(C)CCOC1(CO)OCC(O)C(O)C1O [Compound No. 12, isopentyl-2-L-sorbopyranoside] | – | – | – | – | – | – | 218.8 (109.7-436.5) | 144.5 (125.9-166.0) | 1230.3 (871.0-1737.8) | 269.2 | 109.7 | PCA of rat: dilution of the serum which induced the minimum extravasted dye (IgE antibodies [1]; [25]): 234.4 (204.2-269.2); PHA of rat: dilution of the serum which induced the minimum hemaglutination (IgG and IgM [2]; [26]): 6025.6 (4897.8-7413.1) |
| CCCCCCOC1(CO)OCC(O)C(O)C1O [Compound No. 13, n-hexyl-α-L-sorbopyranoside] | – | – | – | – | – | – | 125.9 (83.2-190.6) | 102.3 (89.1-117.5) | 1148.2 (758.6-1737.8) | – | 109.7 | PCA of mice (serum dilution) (IgE antibodies [3]; [21]): 380.2; PCA of mice (serum dilution) (IgE antibodies [3]; [22]): 708.0; PCA of mice (serum dilution) (IgE antibodies [3]; [23]): 3235.9; PHA of rat: dilution of the serum which induced the minimum hemaglutination (IgG and IgM [2]; [26]): 4265.8 (2630.3-6918.3) |
| O=P1(N(CCCl)CCCl)NCCCO1 (stereo not shown) [Cyclophosphamide, reference compound] | – | 16.0 | – | 214 ± 103 | 561 ± 71 | 368 ± 146 | – | – | – | – | – | – |
